Source: PubChem BioAssay (NCI)
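A five-concentration, 48-hour dose response in 96-well plates underlies each endpoint, interpolated linearly between surrounding concentrations. At the TGI there is no net growth.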

Key:
Assay in all cases: NCI anticancer screen, dose series, 48 h
UACC-62 melanoma = system: UACC-62 melanoma
HCT-116 colon = system: HCT-116 colon
UO-31 renal = system: UO-31 renal
UACC-257 melanoma = system: UACC-257 melanoma
ACHN renal = system: ACHN renal
U251 CNS = system: U251 CNS
TK-10 renal = system: TK-10 renal
K-562 leukemia = system: K-562 leukemia
KM12 colon = system: KM12 colon
SF-539 CNS = system: SF-539 CNS

Measured: TGI

O=C1/C(=C/c2ccc(O)cc2)CCC1CNc1ccccc1 (stereo not given)
22.7 µM: KM12 colon
30.3 µM: U251 CNS
28.7 µM: UACC-62 melanoma
24.3 µM: TK-10 renal
29 µM: UO-31 renal
24.8 µM: ACHN renal
4 µM: K-562 leukemia
29.8 µM: SF-539 CNS
30.6 µM: UACC-257 melanoma
17.5 µM: HCT-116 colon

CC(=O)O[C@H]1CCC2[C@@H]3CCC4NC(=O)C(C#N)C[C@]4(C)C3CC[C@@]21C (stereo not given in full)
> 10 µM: UACC-62 melanoma | HCT-116 colon | UO-31 renal | UACC-257 melanoma | ACHN renal | U251 CNS | TK-10 renal | K-562 leukemia | KM12 colon | SF-539 CNS

CC1=NN2C(=N)/C(=C/c3ccccc3)C(=O)N=C2S1
> 100 µM: UACC-62 melanoma | HCT-116 colon | UO-31 renal | UACC-257 melanoma | ACHN renal | U251 CNS | TK-10 renal | K-562 leukemia | KM12 colon | SF-539 CNS

Cc1c(C#N)c(=N)oc2ccccc12
> 100 µM: UACC-62 melanoma | HCT-116 colon | UO-31 renal | UACC-257 melanoma | ACHN renal | U251 CNS | TK-10 renal | K-562 leukemia | KM12 colon | SF-539 CNS

Cc1cn(CCOCCOC(=O)NC(CCCNC(N)=O)C(=O)O)c(=O)[nH]c1=O (stereo not given)
> 100 µM: UACC-62 melanoma | HCT-116 colon | UO-31 renal | UACC-257 melanoma | ACHN renal | U251 CNS | TK-10 renal | K-562 leukemia | KM12 colon | SF-539 CNS

C/C(=N/NC(=S)N1CCN(C(=S)N/N=C(/C)c2ccccn2)CC1)c1ccccn1
> 100 µM: UACC-62 melanoma | HCT-116 colon | UACC-257 melanoma | U251 CNS | TK-10 renal | K-562 leukemia | KM12 colon | SF-539 CNS
> 44.1 µM: ACHN renal
> 76.7 µM: UO-31 renal

Cn1ccc2c(c1=O)C(=O)OC2(C)C
> 100 µM: UACC-62 melanoma | HCT-116 colon | UO-31 renal | UACC-257 melanoma | ACHN renal | U251 CNS | TK-10 renal | K-562 leukemia | KM12 colon | SF-539 CNS

CCN1CCCn2c(=O)[nH]c3cc(Br)cc1c32
> 100 µM: UACC-62 melanoma | HCT-116 colon | UO-31 renal | UACC-257 melanoma | ACHN renal | U251 CNS | TK-10 renal | K-562 leukemia | KM12 colon | SF-539 CNS
